Measured values from patent publication US8163509B2, “Biological markers predictive of anti-cancer response to insulin-like growth factor-1 receptor kinase inhibitors” (The Regents of the University of Colorado, A Body Corporate, priority 2008, dated 2012).

Columns and labels:
Assay in all cases: Immunoblotting, pathway activation
Format in all cases: cell-based, human
[1] = test system: Akt; conditions: PQIP 0.4 μmol/L 3 h, with or without IGF-2 stimulation
Procedure: (§1) Immunoprecipitation and Immunoblotting: HT29 and HCT116 CRC cell lines were seeded into 6-well plates, allowed to attach for 24 hours and serum starved overnight. Cells were then exposed to IGF-2 (100 ng/mL) for 10 minutes with or without a 3 hour PQIP (0.4 μmol/L) pretreatment. After treatment cells were rinsed with PBS and scraped into RIPA lysis buffer containing protease inhibitors, EDTA, NaF, and sodium orthovanadate. Total protein was quantified using the BioRad Dc Protein Assay (BioRad, Hercules, Calif.). Total protein (30 μg) was electrophoresed on a 4-20% gradient SDS-polyacrylimide gel then electrophoretically transferred to Immobilon-P (Millipore, Bedford, Mass.). Membranes were blocked for 1 hour in 5% non-fat dry milk (BioRad, Hercules, Calif.) in TBS-Tween (0.1%) prior to overnight incubation at 4° C. with the appropriate primary antibody. Blots were then washed 3×20 minutes in TBS-Tween (0.1%) and were incubated with the appropriate secondary anti-rabbit or anti-mouse IgG1 horseradish peroxidase-linked antibody at 1:20,000 (Jackson ImmunoResearch, West Grove, Pa.) for one hour at room temperature. After three additional washes, the blots were developed by Immobilon Western Chemiluminescent HRP substrate (Millipore, Billerica, Mass.). Anti-IGF1Rβ rabbit polyclonal (Cell Signaling Technology, Danvers, Mass.) was used for immunoprecipitation at a 1:50 dilution. The following primary antibodies were used for immunoblotting (all from Cell Signaling Technology, Danvers, Mass.). Anti-phosphorylated Akt (T308) rabbit polyclonal, anti-phosphorylated S6 ribosomal protein (S235/236) rabbit mAb, anti-phosphorylated p44/42 MAPK (Thr202/Tyr204) rabbit mAb, and anti-phosphorylated tyrosine mouse mAb at 1:1.000. Anti-Akt (pan) rabbit mAb, anti-S6 ribosomal protein rabbit mAb, anti-p44/42 MAP Kinase rabbit mAb, anti Pan-Actin rabbit polyclonal, anti-IGF1Rβ rabbit polyclonal, anti-PARP rabbit polyclonal, and anti-cyclin D1 rabbit polyclonal at 1:5000.
(§2) Effect of PQIP on receptor phosphorylation and pathway activation: Since PQIP is expected to inhibit autophosphorylation of IGF1R, we tested its ability to inhibit IGF-2 mediated activation of the receptor and pathway. One PQIP sensitive and one PQIP resistant CRC cell line were chosen for immunoprecipitation and immunoblotting analysis. Following 18 h serum starvation, HT29 and HCT116 CRC cell lines were stimulated or unstimulated for 10 minutes with 100 ng/mL of IGF-2 with or without a 3 h pre-exposure to PQIP (0.4 μmol/L).

[2] = test system: S6 ribosomal protein; conditions: PQIP 0.4 μmol/L 3 h, with or without IGF-2 stimulation
Procedure: as §1, §2

[3] = test system: p42/44 MAPK; conditions: PQIP 0.4 μmol/L 3 h pre-exposure, IGF-2 100 ng/mL 10 minutes
Procedure: as §1, §2

CN1CCN([C@H]2C[C@@H](c3nc(-c4ccc5ccc(-c6ccccc6)nc5c4)c4c(N)nccn43)C2)CC1 [PQIP, cis-3-[3-(4-Methyl-piperazin-1-yl)-cyclobutyl]1-(2-phenyl-quinolin-7-yl)-imidazo[1,5-a]pyrazin-8-ylamine]
phosphorylation of Akt ([1]; HCT116): inhibits | phosphorylation of Akt ([1]; HT29): inhibits | phosphorylation of S6 ribosomal protein ([2]; HCT116): inhibits | phosphorylation of S6 ribosomal protein ([2]; HT29): inhibits | IGF-2 induced phosphorylation of p42/44 MAPK ([3]; HCT116): not in resistant HCT116 | IGF-2 induced phosphorylation of p42/44 MAPK ([3]; HT29): inhibited
